Experimental data taken from publication PMC10600239, “Selective MCL-1 inhibitor ABBV-467 is efficacious in tumor models but is associated with cardiac troponin increases in patients” (Communications Medicine, 2023).
Several values for one entry are separate records, joined by “and”; a condition that tells them apart may be missing. Equal values may be shown once.

Assays:
H929 cells [1] = assay: Caspase-3/7 activation and viability (DRAQ7) over time by Incucyte; format: cell-based, human
Description: Fig. 2 Apoptosis induced by ABBV-467 is mechanism based and induces cell death in MCL-1-dependent cell lines after short target engagement periods. H929 cells were treated with ABBV-467 in the presence or absence of the pan-caspase inhibitor z-VAD-fmk (50 µM) and the impact on caspase-3/7 activation (a), mitochondrial membrane potential (ΔΨm; b), and apoptosis (c) determined. Alternatively, BAK-deficient SKBR3 cells were treated with ABBV-467 for 24 h and the impact on cell viability compared with the parental cell line, determined by CellTiter-Glo. Inset depicts a western blot of BAK and BAX expression in SKBR3 cell variants using GAPDH as a loading control. Each of the 3 proteins were probed on separate blots (d). Data in (a–d) are presented as the mean ± standard error of the mean. H929 and AMO-1 cells were treated with ABBV-467 at the indicated concentrations and the impact on caspase-3/7 activation and viability (DRAQ7-positive) cells determined over time by Incucyte®. Data are presented as the mean ± standard deviation (e). H929 or AMO-1 cells were cultured in media containing 10% human serum and treated with ABBV-467 for the indicated contact times. Cells were subsequently washed 3 times with drug-free media and incubated in drug-free media for the remainder of the 24-h treatment period at 37 °C before cell viability was determined by CellTiter-Glo. Mean EC50 and EC90 values were determined from the resulting dose-response curves from at least 3 independent experiments, each assessed in quadruplicate, and depict the mean ± standard error of the mean. Presented ABBV-467 dose-response curves in H929 and AMO-1 cells were compiled from at least 3 independent experiments (f).

[2] = molecular target: off-target receptors, ion channels, and transporters (Homo sapiens, UniProt P08908); assay: Off-target profiling (Supplementary Data 1)
Sequence of off-target receptors, ion channels, and transporters (Homo sapiens, UniProt P08908) (P08908 whole entry): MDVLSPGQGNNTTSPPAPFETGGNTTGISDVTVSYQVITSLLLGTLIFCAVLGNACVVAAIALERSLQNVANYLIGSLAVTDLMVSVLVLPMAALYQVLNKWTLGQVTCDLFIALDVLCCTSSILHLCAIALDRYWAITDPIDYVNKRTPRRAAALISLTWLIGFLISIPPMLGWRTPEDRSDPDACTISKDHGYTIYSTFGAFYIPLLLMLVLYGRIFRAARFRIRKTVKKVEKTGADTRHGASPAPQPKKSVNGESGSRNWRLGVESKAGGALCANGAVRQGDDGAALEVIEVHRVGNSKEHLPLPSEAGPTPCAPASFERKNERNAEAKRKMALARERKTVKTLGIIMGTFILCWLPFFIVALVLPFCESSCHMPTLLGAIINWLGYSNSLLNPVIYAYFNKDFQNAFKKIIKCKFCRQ

[3] = molecular target: off-target receptors, ion channels, and transporters (Homo sapiens, UniProt P06239); assay: Off-target profiling (Supplementary Data 1); settings: TR-FRET Kinome; Invitrogen A-1167389.7 .1(Subs Conc)
Sequence of off-target receptors, ion channels, and transporters (Homo sapiens, UniProt P06239) (P06239 whole entry): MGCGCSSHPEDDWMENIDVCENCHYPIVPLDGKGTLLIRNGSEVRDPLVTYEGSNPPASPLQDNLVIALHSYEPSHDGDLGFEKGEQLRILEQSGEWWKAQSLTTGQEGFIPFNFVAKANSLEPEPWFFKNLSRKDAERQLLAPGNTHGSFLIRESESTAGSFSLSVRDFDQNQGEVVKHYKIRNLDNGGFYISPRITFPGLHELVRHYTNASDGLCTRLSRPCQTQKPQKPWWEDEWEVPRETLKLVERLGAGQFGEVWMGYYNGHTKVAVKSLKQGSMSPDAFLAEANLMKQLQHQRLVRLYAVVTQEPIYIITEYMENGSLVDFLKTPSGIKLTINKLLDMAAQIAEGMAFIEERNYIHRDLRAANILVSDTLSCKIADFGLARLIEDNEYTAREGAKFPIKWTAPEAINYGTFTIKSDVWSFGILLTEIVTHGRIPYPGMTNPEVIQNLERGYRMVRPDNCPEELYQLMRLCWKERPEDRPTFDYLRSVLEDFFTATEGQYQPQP

[4] = molecular target: off-target receptors, ion channels, and transporters (Homo sapiens, UniProt Q06418); assay: Off-target profiling (Supplementary Data 1); settings: TR-FRET Kinome; Invitrogen A-1169612.6 .05(Subs Conc)
Sequence of off-target receptors, ion channels, and transporters (Homo sapiens, UniProt Q06418) (Q06418 41-890): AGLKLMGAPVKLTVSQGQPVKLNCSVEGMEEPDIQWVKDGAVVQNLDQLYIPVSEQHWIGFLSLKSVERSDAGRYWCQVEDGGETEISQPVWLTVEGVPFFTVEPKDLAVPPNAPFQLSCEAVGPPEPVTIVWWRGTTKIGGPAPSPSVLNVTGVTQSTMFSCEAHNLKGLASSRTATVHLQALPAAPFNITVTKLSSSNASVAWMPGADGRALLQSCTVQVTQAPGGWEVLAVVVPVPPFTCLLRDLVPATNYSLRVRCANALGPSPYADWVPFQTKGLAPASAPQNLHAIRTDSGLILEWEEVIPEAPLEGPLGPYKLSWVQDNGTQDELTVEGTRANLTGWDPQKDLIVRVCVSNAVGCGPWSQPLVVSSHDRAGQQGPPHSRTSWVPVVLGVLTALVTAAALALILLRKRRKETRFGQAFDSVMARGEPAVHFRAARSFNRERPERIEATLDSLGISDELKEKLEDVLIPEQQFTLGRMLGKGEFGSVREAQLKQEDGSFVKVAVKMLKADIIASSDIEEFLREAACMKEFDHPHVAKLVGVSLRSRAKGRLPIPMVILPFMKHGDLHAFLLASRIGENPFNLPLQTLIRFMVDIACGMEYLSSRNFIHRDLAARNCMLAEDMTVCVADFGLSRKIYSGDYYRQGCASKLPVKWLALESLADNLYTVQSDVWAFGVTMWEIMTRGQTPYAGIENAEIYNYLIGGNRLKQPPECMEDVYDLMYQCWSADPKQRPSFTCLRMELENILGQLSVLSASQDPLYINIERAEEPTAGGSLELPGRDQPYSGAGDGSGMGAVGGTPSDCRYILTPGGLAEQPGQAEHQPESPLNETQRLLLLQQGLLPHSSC

H929 cells [5] = assay: Caspase-3/7 activation, Δψm and annexin-V positivity by flow cytometry; format: cell-based, human; parameters: MMP / H929 zVAD Fig 2C: unit not given here; settings: for Caspase-3/-7 Activation / MMP / H929 zVAD Fig 2C: H929; for Caspase-3/-7 Activation: Fig 2A; for MMP: Fig 2B
Description: H929 cells cultured in RPMI 1640 medium (Sigma, St. Louis, MO) supplemented with 10% fetal bovine serum (Gibco, Grand Island, NY) were pretreated with a pan-caspase inhibitor z-VAD-fmk (MP Biomedicals, Solon, OH; 50 µM) for 1 h before the addition of ABBV-467 for a further 6 h. Cells were then washed twice with Dulbecco’s phosphate-buffered saline and resuspended in staining buffer for determination of caspase-3/7 activation, Δψm, and annexin-V positivity using the Intellicyt MultiCyt 4-Plex Kit and high-content flow cytometry (Intellicyt, Albuquerque, NM).

Structure (SMILES): Cc1c(Cl)c2c(Cl)c(C)c1-c1c(-c3ccc(F)cc3)sc3ncnc(c13)O[C@@H](C(=O)O)Cc1cc(ccc1OCc1ccnc(-c3ccc(OC[C@H]4COCCO4)cc3)n1)OC[C@@H](CN1CCN(C)CC1)O2 [ABBV-467]
- Caspase-3/-7 Activation (H929 cells [1]; ABBV-467 10 nM, 6 hours): 1813.36
- Caspase-3/-7 Activation (H929 cells [1]; ABBV-467 10 nM, 7 hours): 2014.88
- Caspase-3/-7 Activation (H929 cells [1]; ABBV-467 10 nM, 8 hours): 2144.69
- Caspase-3/-7 Activation (H929 cells [1]; ABBV-467 10 nM, 9 hours): 2203.21
- Caspase-3/-7 Activation (H929 cells [1]; ABBV-467 10 nM, 10 hours): 2258.19
- Caspase-3/-7 Activation (H929 cells [1]; ABBV-467 10 nM, 11 hours): 2283.58
- Caspase-3/-7 Activation (H929 cells [1]; ABBV-467 10 nM, 12 hours): 2310.22
- Caspase-3/-7 Activation (H929 cells [1]; ABBV-467 10 nM, 13 hours): 2302.82
- Caspase-3/-7 Activation (H929 cells [1]; ABBV-467 10 nM, 14 hours): 2302.28
- Caspase-3/-7 Activation (H929 cells [1]; ABBV-467 100 nM, 0 hours): 208.608
- Caspase-3/-7 Activation (H929 cells [1]; ABBV-467 100 nM, 1 hours): 451.845
- Caspase-3/-7 Activation (H929 cells [1]; ABBV-467 100 nM, 2 hours): 1550.74
- Caspase-3/-7 Activation (H929 cells [1]; ABBV-467 100 nM, 3 hours): 2054.45
- Caspase-3/-7 Activation (H929 cells [1]; ABBV-467 100 nM, 4 hours): 2191.43
- Caspase-3/-7 Activation (H929 cells [1]; ABBV-467 100 nM, 5 hours): 2357.93
- Caspase-3/-7 Activation (H929 cells [1]; ABBV-467 100 nM, 6 hours): 2394.62
- Caspase-3/-7 Activation (H929 cells [1]; ABBV-467 100 nM, 7 hours): 2491.07
- Caspase-3/-7 Activation (H929 cells [1]; ABBV-467 100 nM, 8 hours): 2431.58
- Caspase-3/-7 Activation (H929 cells [1]; ABBV-467 100 nM, 9 hours): 2418.59
- Caspase-3/-7 Activation (H929 cells [1]; ABBV-467 100 nM, 10 hours): 2357.71
- Caspase-3/-7 Activation (H929 cells [1]; ABBV-467 100 nM, 11 hours): 2329.52
- Caspase-3/-7 Activation (H929 cells [1]; ABBV-467 100 nM, 12 hours): 2294.27
- Caspase-3/-7 Activation (H929 cells [1]; ABBV-467 100 nM, 13 hours): 2277.8
- Caspase-3/-7 Activation (H929 cells [1]; ABBV-467 100 nM, 14 hours): 2211.71
- Caspase-3/-7 Activation (H929 cells [1]; ABBV-467 100 nM, 15 hours): 2210.67
- 5-HT1A CHO Human - EC50 ([2]; Bioprofiling 6pt Ag): > 10 µM
- 5-HT1A CHO Human - IC50 ([2]; Bioprofiling 6pt Antag, 5-Carboxytryptamine (5-CT)): > 10 µM
- Lck - IC50 [3]: > 10 µM
- TYRO3 - IC50 [4]: > 10 µM
- Caspase-3/-7 Activation (H929 cells [5]; Log [ABBV-467] uM 0.045757): 53.8099 and 53.0567 and 99.0546 and 98.9774
- Caspase-3/-7 Activation (H929 cells [5]; Log [ABBV-467] uM 0.522879): 56.0913 and 57.1822 and 99.1897 and 99.0858
- Caspase-3/-7 Activation (H929 cells [5]; Log [ABBV-467] uM 1): 64.5099 and 63.3101 and 99.1237 and 99.059
- MMP (H929 cells [5]; Log [ABBV-467] uM 1): 45.9293
- Caspase-3/-7 Activation (H929 cells [5]; Log [ABBV-467] uM -0.43136): 50.714 and 51.6373 and 98.7601 and 98.6341
- MMP (H929 cells [5]; Log [ABBV-467] uM -0.90849): 38.9227
- Caspase-3/-7 Activation (H929 cells [5]; Log [ABBV-467] uM -1.86273): 33.5112 and 33.8695 and 61.3327 and 57.2365
- MMP (H929 cells [5]; Log [ABBV-467] uM -1.86273): 31.9106 and 36.0956 and 42.4956 and 39.7476
- Caspase-3/-7 Activation (H929 cells [5]; Log [ABBV-467] uM -2.33985): 30.5735 and 30.5502 and 33.1767 and 32.117
- MMP (H929 cells [5]; Log [ABBV-467] uM -2.81697): 29.9048
- H929 zVAD Fig 2C (H929 cells [5]; Vehicle, Log [ABBV-467] uM 0.522879): 78.4582 and 79.5333 and 93.9539 and 93.9739
- H929 zVAD Fig 2C (H929 cells [5]; Vehicle, Log [ABBV-467] uM 1): 82.31 and 82.4987 and 93.6098 and 94.0208
- H929 zVAD Fig 2C (H929 cells [5]; Vehicle, Log [ABBV-467] uM -0.90849): 61.8581 and 57.4223 and 88.7815 and 89.1451
- H929 zVAD Fig 2C (H929 cells [5]; Vehicle, Log [ABBV-467] uM -1.86273): 33.1301 and 34.5804 and 48.8387 and 44.3698
- H929 zVAD Fig 2C (H929 cells [5]; Vehicle, Log [ABBV-467] uM -2.81697): 10.2236
- H929 zVAD Fig 2C (H929 cells [5]; z-VAD-fmk, Log [ABBV-467] uM 0.045757): 25.2697
- H929 zVAD Fig 2C (H929 cells [5]; z-VAD-fmk, Log [ABBV-467] uM 1): 9.553 and 7.075
- H929 zVAD Fig 2C (H929 cells [5]; z-VAD-fmk, Log [ABBV-467] uM -0.43136): 25.945
- H929 zVAD Fig 2C (H929 cells [5]; z-VAD-fmk, Log [ABBV-467] uM -1.38561): 25.2659
- H929 zVAD Fig 2C (H929 cells [5]; z-VAD-fmk, Log [ABBV-467] uM -1.86273): 25.2352
- H929 zVAD Fig 2C (H929 cells [5]; z-VAD-fmk, Log [ABBV-467] uM -2.33985): 25.2036
- hallmarks of apoptosis induced (H929 cells [5]; H929 cells, 6 h): dose-dependent loss in mitochondrial membrane potential, caspase-3/7 activation, and phosphatidyl serine externalization
- effect of pan-caspase inhibition with z-VAD-fmk on induced apoptosis (H929 cells [5]; z-VAD-fmk 50 µM): abrogated
